Reference: the COVID Moonshot data (paper PMC11187573), “Identification of SARS-CoV-2 Mpro inhibitors through deep reinforcement learning for de novo drug design and computational chemistry approaches” (RSC Medicinal Chemistry, 2024)

What was measured:
[1] = molecular target: SARS-CoV-2 Main Protease (SARS-CoV-2) (UniProt P0DTD1)
[2] = molecular target: SARS-CoV-2 Main Protease (SARS-CoV-2) (UniProt P0DTD1); remark: listed apart in the source

| Compound | IC50 [1] [nM] | inhibition ([1]; 50.0 µM) [%] | relative solubility at 20 uM | relative solubility at 100 uM | inhibition ([2]; 20.0 µM) [%] | inhibition ([2]; 50.0 µM) [%] | inhibition ([1]; 20.0 µM) [%] |
| --- | --- | --- | --- | --- | --- | --- | --- |
| C=CC(=O)N(c1ccc(C(C)(C)C)cc1)C(C(=O)NCCc1cccc(F)c1)c1cncc(C#N)c1 (stereo not given) | 2470 | 89.2 | 0.57 | 0.46 | 49.6 | 87.1 | – |
| C#CCN1CCN(C(=O)C=C)CC1 | – | – | 1.01 | 1.01 | -18.6 | -15 | 3.23 |
| O=C(Cc1cccc(Cl)c1)Nc1nncs1 | – | 0 | 1 | 0.78 | -9.94 | -3.05 | – |
| Cc1cc(-c2nc3ccccc3[nH]2)ccc1O | – | -3.73 | 0.99 | 1 | -10.3 | -36.8 | – |
| COCC1CCN(c2ccc(S(N)(=O)=O)cc2)CC1 | – | 44 | 0.99 | 1 | – | -23.1 | 22.3 |
| Cc1nnc(NC(=O)Cc2cccc(Cl)c2)n1C | – | -14 | 1 | 1 | -6.05 | 0.874 | – |
| Cc1cccc(CC(=O)Nc2cccnc2C#N)c1 | – | – | 1 | 1 | 8.4 | -5.94 | 0 |
| Cc1ccncc1NC(=O)CC1CCCNC1 (stereo not given) | – | 0 | 1 | 1 | -1.91 | 16.7 | – |
| C=CC(=O)N(c1ccc2ncsc2c1)C(C(=O)Nc1c(C)cccc1CC)c1cccnc1 (stereo not given) | – | – | 0.97 | 0.97 | 7.67 | 10.7 | 0 |
| C=CC(=O)N(c1ccc(C(C)(C)C)cc1)C(C(=O)Nc1ccc(OC)nc1)c1cccnc1 (stereo not given) | – | 0 | 1 | 1 | 1.08 | 13.4 | 0 |
| COc1cc(NC(=O)C(=O)Nc2cc(OC)c(OC)c(OC)c2)cc(OC)c1OC | – | – | 0.99 | 0.92 | -9.4 | 4.05 | 0.456 |
| O=C(CSC1=NCCS1)c1cc(Cl)ccc1Cl | – | 44.8 | 0.77 | 0.64 | 5.24 | 2.86 | – |
| O=S(=O)(NCCc1ccccc1)c1ccoc1 | – | 16.5 | 1 | 1 | – | -24.5 | 0 |
| CS(=O)(=O)NCCCN1CCCc2ccc(S(N)(=O)=O)cc21 | – | 0 | 1 | 1 | – | -23.8 | 0 |
| Cc1cnn(C)c1NC(=O)Cc1cccc(Cl)c1 | – | 23.1 | 0.99 | 0.99 | 3.11 | 5.06 | – |
| O=C(Cc1c[nH]c2ncccc12)NCc1cc(Cl)ccn1 | – | – | 1 | 0.98 | 2.58 | 8.45 | 0 |
| COc1ccccc1OCCN(C)C(=O)c1cc(=O)[nH]c2cc(F)ccc12 | – | 0 | 1.01 | 1 | -3.47 | 7.57 | – |
| O=C(c1cc(=O)[nH]c2ccc(Cl)cc12)N1CCN(S(=O)(=O)c2ccccc2F)CC1 | – | 17.1 | 0.94 | 0.91 | -7.48 | 4.42 | – |
| O=C(c1cc(=O)[nH]c2ccccc12)N1CCN(S(=O)(=O)c2ccccc2)CC1 | – | 3.07 | 0.98 | 0.97 | 16.1 | 40.7 | – |
| Cc1cccc(C)c1OCC(=O)N[C@@H](Cc1ccccc1)[C@@H](O)C[C@H](Cc1ccccc1)NC(=O)[C@H](C(C)C)N1CCCNC1=O (stereo in doubt) | – | – | 0.83 | 0.53 | 7.22 | 13 | 0 |
| COc1ccccc1N1CCN(C(=O)c2cc(=O)[nH]c3ccccc23)CC1 | – | 14.8 | 1 | 0.99 | 39 | 62.8 | – |
| O=C(CCl)N1CCN(Cc2nc(-c3cccs3)no2)CC1 | – | 0 | 0.98 | 0.93 | 6.55 | 17 | – |
| NS(=O)(=O)c1ccc(N2CCC(c3ccco3)CC2)cc1 | – | 38.9 | 1 | 0.83 | 5.4 | 8.47 | 45.9 |
| CCc1ccccc1Nc1nc(N)nc(CSc2nnc3ccccn23)n1 | – | 3.37 | 0.99 | 0.95 | 20.9 | 46.6 | -0.805 |
| Cc1ccc(S(=O)(=O)N2CCN(C(=O)c3cc(=O)[nH]c4ccc(F)cc34)CC2)c(C)c1 | – | 11.7 | 0.98 | 0.84 | 6.24 | 20.6 | – |
| O=C(Cn1nnc2ccccc21)N(Cc1ccsc1)c1ccc(-c2ccccc2)cc1 | – | 36.1 | 0.64 | 0.5 | 30.4 | 39.1 | – |
| N#Cc1cncc(NC(=O)Nc2cccnc2)c1 | – | 17.4 | 1 | 1 | 7.07 | 17.1 | – |
| C=CC(=O)N(c1ccc(C(F)(F)F)cc1)C(C(=O)NCCc1cccc(F)c1)c1cncc(C#N)c1 (stereo not given) | 3010 | 96.5 | 1 | 0.99 | 53.5 | 93.2 | – |
